pIC50: −log10 of the molar value.
How the values were obtained:
[1] = system: T. b. brucei Lister427 bloodstream form parasites; experiment: T. b. brucei growth inhibition assay (CellTiter-Glo, 48 hours); type: cell-based; conditions: Trypanosoma brucei
Summary of the method: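 1×10^4 bloodstream-form parasites/well in HMI-9 medium exposed to 10-point, 3-fold compound dilutions for 48 h at 37 °C, 5% CO2. Parasite number quantified as intracellular ATP by CellTiter-Glo luminescence, normalized to DMSO controls for IC50 calculation.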

T.b. gambinese STIB930 = experiment: T.b. gambiense growth inhibition assay; type: cell-based; conditions: Trypanosoma brucei, read-out: (b) T.b.g* IC50
Procedure: Bloodstream form of T. b. brucei Lister427 strain was obtained from the Genomics Institute of the Novartis Research Foundation. This strain was used for carrying out growth inhibition and kill kinetics assays. T. b. gambiense STIB930 and T. b. rhodesiense STIB900 were obtained from Swiss TPH, were used for carrying out the growth inhibition assays. Bloodstream form of T. b. gambiense and T. b. rhodesiense were also grown in HMI-9 media, described above, but the media was supplemented by 5% human serum and 5% heat-inactivated FBS instead of 10% FBS. To determine compound growth inhibitory potency on T. b. brucei Lister427 bloodstream form parasites, 200 nL of 10-point, 3 fold serially diluted compounds in DMSO were transferred to the wells of white, solid bottom 384-well plates (Greiner Bio-One) by either Echo 555 acoustic liquid handling system or Mosquito. Then, 1×10^4 of T. b. brucei parasites in 40 μL of HMI-9 medium were added to each well, and the plates were incubated for 48 hours at 37° C. in 5% CO2 incubators. Parasite numbers in individual plate wells were determined through quantification of intracellular ATP amount. The CellTiter-Glo luminescent cell viability reagent (Promega) was added to plate wells, and ATP-dependent luminescence signal was measured on Tecan M1000 plate Reader after 30 min incubation. Luminescence values in wells with compounds were divided by the average luminescence value of the plate DMSO controls, and used for calculation of compound IC50 values. Similar assay was also used for determining IC50 against T.b. gambinese STIB930 and T. b. rhodesiense STIB900 strains, but the initial concentration of cells used was 3×10^4 parasites/ml.

[2] = system: intracellular T. cruzi amastigotes; experiment: T. cruzi amastigote growth inhibition assay (NIH 3T3 host cells, β-galactosidase readout); type: cell-based; conditions: Trypanosoma cruzi, NIH3T3, read-out: (c) T.c.* IC50
[3] = system: Leishmania donovani axenic amastigote; experiment: Growth inhibition of Leishmania donovani axenic amastigote; type: cell-based; conditions: L. donovani growth inhibition, read-out: (d) L.d* IC50
Procedure: Leishmania donovani axenic amastigote parasites are grown at 37° C., 5% CO2 in media made of RPMI 1640, 4 mM L-glutamine, 20% heat inactivated FBS, 100 units/ml of penicillin and 100 μg/ml of streptomycin, 23 μM Folic Acid, 100 μM Adenosine, 22 mM D-glucose, 25 mM MES. The pH of media is adjusted to 5.5 at 37° C. using HCl. 20 μL of media is first dispensed into 384 well plates and 100 nL of the compounds of invention in DMSO are added to the plate wells. At the same time control compounds and DMSO are added to plates to serve as the positive and negative controls, respectively. 40 μL of parasite culture (9600 parasites) are then added to the plate wells. The plates are then placed into incubators. After 2 day incubation, 20 μL of Cell TiterGlo (Promega) is added to the plate wells. The luminescence signal of each well is measured using the Envision reader (Perkin Elmer). The percentage inhibition of 50%, EC50, is calculated for each of the compounds.

[4] = system: stage I mouse model, hemolymphatic (blood stream) form of human infection; experiment: Stage I mouse model of HAT; type: in vivo; conditions: 10 mg/kg QD
Text: (§1) Based on the favorable in vitro and in vivo pharmacological properties, selected cyanotraizole compounds were chosen for testing in stage I and stage II mice models. The stage I mouse model represents the hemolymphatic (blood stream) form of human infection.

[5] = system: stage II mouse model, CNS form of the disease; experiment: Stage II mouse model of HAT; type: in vivo; conditions: 15 mg/kg QD
Text: as §1

## N#Cc1ncn(CC(=O)N2Cc3ccc(-c4cccnc4C(F)(F)F)cc3C2)n1 [Example 85, 1-(2-oxo-2-(5-(2-(trifluoromethyl)pyridin-3-yl)isoindolin-2-yl)ethyl)-1H-1,2,4-triazole-3-carbonitrile]
[1]
  pIC50: > 7.00
T.b. gambinese STIB930
  pIC50: > 7.00
[2]
  pIC50: > 7.00
[3]
  pIC50: ≤ 6.00
[4]
  cure in stage I mouse model: complete cure without relapse
[5]
  cure in stage II mouse model: complete cure without relapse
